Measurements: patent publication US10759766B2, “Certain chemical entities, compositions, and methods” (NeuPharma, Inc., priority 2011, dated 2020)

Columns and labels:
A375 cells = experiment: Inhibition of cancer cell growth, MTT assay, A375; assay type: cell-based; conditions: Homo sapiens, A-375, 72 h exposure
Description: (§1) Inhibition of cell growth by compounds was measured using MTT assay (Mosmann, T., Journal of Immunological Methods, 1983, 65, 55-63). Tumor cell lines were purchased from ATCC (American Type Culture Collection, Manassas, Va.). All cell lines were maintained in RPMI 1640 (Hyclone) supplemented with 10% fetal bovine serum (FBS, Hyclone), glutamine (2 mM, Hyclone), and antibiotics (penicillin 100 U/mL and streptomycin 50 μg/mL) at 37° C. in a humidified atmosphere of 5% CO2 in air. Taxol (as a positive control, Sigma) and compounds were dissolved in DMSO (Sigma), and the final concentration of DMSO in the medium was 1%. Tumor cells were plated in 96-well plates at densities of about 4000 cells/well of a 96-well plate and allowed to adhere/grow for 24 h. They were then treated with various concentrations of drug for 72 h. 3-(4,5-Dimethylthiazol-2-yl)-2,5-diphenyltetrazolium bromide (MTT, Sigma) was used to determine the number of viable cells at the time of compound addition and the number of cells remaining after 72 h compound exposure. The number of cells remaining after 72 h was compared to the number of viable cells at the time of compound addition by measuring the absorbance at 570 nm, allowing for the calculation of growth inhibition.
(§2) All concentrations of compounds were tested in triplicate and controls were averaged over 4 wells. IC50 was calculated by plotting the concentration of compound vs the percentage of inhibition in treated wells using GraphPad Prism 5. […] The scale utilized in Table 6 is as follows: +++ less than 1000 nM; ++ between 1000 nM and 5000 nM; and + greater than 5000 nM. The scale utilized in Table 7 is as follows: +++ less than 2000 nM; ++ between 2000 nM and 5000 nM; and + greater than 5000 nM.

KDR (VEGFR2) = KDR (VEGFR2) (Homo sapiens (Human), UniProt P35968); experiment: Z′-LYTE kinase inhibition assay (Invitrogen), KDR; assay type: biochemical; conditions: 1 μM compound, Z′-LYTE method; read-out: % inhibition at 1 μM against KDR
Description: (§3) Inhibitory activities Inhibitory activities of compounds against BRAF, and BRAF V600E were measured by Invitrogen using Z′-LYTE® Method as briefly described in the following. 4× Test compounds are dissolved in 1% DMSO. […] ATP solutions are diluted to a 4×ATP working concentration in Kinase Buffer (50 mM HEPES pH 7.5, 0.01% BRIJ-35, 10 mM MgCl2, 1 mM EGTA). Reaction started by 30-second shaking of mixture consisting of 2.5 μL 4× test compound, […] and 2.5 μL 4×ATP Solution on Bar-coded Corning, low volume NBS, black 384-well plate (Corning Cat. #3676). Then the mixture was incubated for 60-minute at room temperature for the kinase reaction, followed by addition of 5 μL of a 1:1024 dilution of development reagent A and 30-second plate shake. The mixture was then incubated for another 60-minute at room temperature for development reaction. Fluorescence was read by plate reader. IC50 was calculated by plotting the concentration of compound vs the percentage of inhibition in treated wells using GraphPad Prism 5.
Inhibitory activities of compounds against KDR (VEGFR2) were also measured by Invitrogen using Z′-LYTE® Method as described above with the following modification. The 2× KDR (VEGFR2)/Tyr 01 mixture is prepared in 50 mM HEPES pH 7.5, 0.01% BRIJ-35, 10 mM MgCl2, 1 mM EGTA. The final 10 μL Kinase Reaction consists of 0.5-11.7 ng KDR (VEGFR2) and 2 μM Tyr 01 in 50 mM HEPES pH 7.5, 0.01% BRIJ-35, 10 mM MgCl2, 1 mM EGTA. After the 1 hour Kinase Reaction incubation, 5 μL of a 1:256 dilution of Development Reagent B is added.
The scale utilized in Table 5 is as follows: +++ less than 100 nM; and ++ greater than 100 nM

BRAF V600E = BRAF V600E (Homo sapiens (Human), UniProt P15056, V600E); experiment: Z′-LYTE kinase inhibition assay (Invitrogen), BRAF V600E; assay type: biochemical; conditions: 1 μM compound, Z′-LYTE method; read-out: % inhibition at 1 μM against BRAF V600E
Description: as §3
The scale utilized in Table 3 is as follows: +++ less than 100 nM; and ++ greater than 100 nM.

A549 cells = experiment: Inhibition of cancer cell growth, MTT assay, A549; assay type: cell-based; conditions: Homo sapiens, A549, 72 h exposure
Description: as §1, §2

Chain of KDR (VEGFR2) (P35968 20-1356): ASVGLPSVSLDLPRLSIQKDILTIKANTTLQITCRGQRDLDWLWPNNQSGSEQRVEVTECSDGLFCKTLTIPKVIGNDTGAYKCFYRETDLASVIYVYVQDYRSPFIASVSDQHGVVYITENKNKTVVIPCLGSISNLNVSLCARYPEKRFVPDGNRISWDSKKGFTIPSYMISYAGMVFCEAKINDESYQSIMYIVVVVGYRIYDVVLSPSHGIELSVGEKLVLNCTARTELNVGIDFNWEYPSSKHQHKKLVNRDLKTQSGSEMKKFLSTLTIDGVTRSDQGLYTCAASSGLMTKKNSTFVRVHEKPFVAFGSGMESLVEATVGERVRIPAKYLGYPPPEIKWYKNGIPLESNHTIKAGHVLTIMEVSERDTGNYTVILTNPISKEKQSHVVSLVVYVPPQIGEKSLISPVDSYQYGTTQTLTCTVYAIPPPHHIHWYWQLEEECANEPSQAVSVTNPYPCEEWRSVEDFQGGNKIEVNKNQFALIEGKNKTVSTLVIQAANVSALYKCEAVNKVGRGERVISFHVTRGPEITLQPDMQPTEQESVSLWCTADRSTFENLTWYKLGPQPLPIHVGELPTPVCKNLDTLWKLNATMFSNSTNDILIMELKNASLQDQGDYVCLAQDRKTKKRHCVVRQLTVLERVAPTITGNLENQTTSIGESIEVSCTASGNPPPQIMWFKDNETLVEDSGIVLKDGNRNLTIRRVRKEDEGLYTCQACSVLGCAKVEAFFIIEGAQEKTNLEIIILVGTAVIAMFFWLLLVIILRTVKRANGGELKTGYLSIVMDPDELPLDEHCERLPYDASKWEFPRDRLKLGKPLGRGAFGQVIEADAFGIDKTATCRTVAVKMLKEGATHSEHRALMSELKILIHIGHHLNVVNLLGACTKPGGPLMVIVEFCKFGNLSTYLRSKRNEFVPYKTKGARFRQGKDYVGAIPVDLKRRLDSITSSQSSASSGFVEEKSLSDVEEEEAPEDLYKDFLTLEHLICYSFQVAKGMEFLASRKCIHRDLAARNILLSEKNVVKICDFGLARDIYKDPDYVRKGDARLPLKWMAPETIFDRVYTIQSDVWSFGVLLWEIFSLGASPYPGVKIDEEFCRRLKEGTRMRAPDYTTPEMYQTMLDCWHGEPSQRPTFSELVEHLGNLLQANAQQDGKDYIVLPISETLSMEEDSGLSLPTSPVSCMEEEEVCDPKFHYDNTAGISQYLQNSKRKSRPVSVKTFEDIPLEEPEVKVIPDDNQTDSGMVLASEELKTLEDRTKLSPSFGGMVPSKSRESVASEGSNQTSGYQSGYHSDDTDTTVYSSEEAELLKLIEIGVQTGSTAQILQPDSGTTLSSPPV
Chain of BRAF V600E (P15056 whole entry V600E): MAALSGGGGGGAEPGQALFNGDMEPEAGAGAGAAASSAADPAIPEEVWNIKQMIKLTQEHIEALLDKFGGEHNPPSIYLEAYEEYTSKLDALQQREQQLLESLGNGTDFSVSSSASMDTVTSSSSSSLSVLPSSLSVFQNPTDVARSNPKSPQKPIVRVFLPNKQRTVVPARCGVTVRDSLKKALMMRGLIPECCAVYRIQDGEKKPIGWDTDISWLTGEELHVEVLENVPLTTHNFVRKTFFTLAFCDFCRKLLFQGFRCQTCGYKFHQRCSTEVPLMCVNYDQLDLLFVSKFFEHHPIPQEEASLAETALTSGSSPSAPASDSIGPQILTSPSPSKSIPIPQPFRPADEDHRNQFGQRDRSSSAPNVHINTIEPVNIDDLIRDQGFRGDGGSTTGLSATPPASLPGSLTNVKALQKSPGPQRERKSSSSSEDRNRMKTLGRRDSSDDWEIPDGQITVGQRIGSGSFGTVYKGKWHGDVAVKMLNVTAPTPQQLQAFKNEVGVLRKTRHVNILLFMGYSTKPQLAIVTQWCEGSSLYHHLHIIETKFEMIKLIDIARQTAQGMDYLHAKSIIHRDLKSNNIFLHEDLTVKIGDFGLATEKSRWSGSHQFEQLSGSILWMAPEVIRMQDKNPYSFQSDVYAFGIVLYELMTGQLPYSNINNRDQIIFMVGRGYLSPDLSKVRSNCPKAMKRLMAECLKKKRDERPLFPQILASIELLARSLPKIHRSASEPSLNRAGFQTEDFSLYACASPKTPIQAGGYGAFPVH

SMILES | IC50 (A375 cells) | inhibition at 1 µM (KDR (VEGFR2)) | inhibition at 1 µM (BRAF V600E) | IC50 (A549 cells)
O=C(Nc1cccc(C(F)(F)F)c1)Nc1ccc(F)c(C(=O)c2ccc3nccnc3c2)c1F [Compound C010, 1-(2,4-difluoro-3-(quinoxaline-6-carbonyl)phenyl)-3-(3-(trifluoromethyl)phenyl)urea] | > 5 µM | < 70% | 70 to 89% | > 5 µM
O=C(Nc1cccc(F)c1)Nc1ccc(F)c(C(=O)c2ccc3nccnc3c2)c1 [Compound C013, 1-(4-fluoro-3-(quinoxaline-6-carbonyl)phenyl)-3-(3-fluorophenyl)urea] | 1 to 5 µM | 70 to 89% | > 89% | 2 to 5 µM
O=C(Nc1cccc(Cl)c1)Nc1cc(F)cc(C(=O)c2ccc3ncc(N4CCOCC4)nc3c2)c1 [Compound C047, 1-(3-chlorophenyl)-3-(3-fluoro-5-(3-morpholinoquinoxaline-6-carbonyl)phenyl)urea] | 1 to 5 µM | < 70% | > 89% | 2 to 5 µM
COc1cnc2ccc(C(=O)c3cc(NC(=O)Nc4cccc(F)c4)ccc3F)cc2n1 [Compound C083, 1-(4-fluoro-3-(3-methoxyquinoxaline-6-carbonyl)phenyl)-3-(3-fluorophenyl)urea] | 1 to 5 µM | 70 to 89% | > 89% | > 5 µM
O=C(Nc1cc(F)cc(Cl)c1)Nc1ccc(F)c(C(=O)c2ccc3ncc(N4CCOCC4)nc3c2)c1 [Compound C059, 1-(3-chloro-5-fluorophenyl)-3-(4-fluoro-3-(3-morpholinoquinoxaline-6-carbonyl)phenyl)urea] | 1 to 5 µM | 70 to 89% | > 89% | 2 to 5 µM
O=C(Nc1ccc(F)cc1)Nc1cc(F)cc(C(=O)c2ccc3nccnc3c2)c1 [Compound C064, 1-(3-fluoro-5-(quinoxaline-6-carbonyl)phenyl)-3-(4-fluorophenyl)urea] | > 5 µM | < 70% | > 89% | > 5 µM
O=C(Nc1cc(F)cc(C(=O)c2ccc3nccnc3c2)c1)c1cccc(C(F)(F)F)c1 [Compound C126, N-(3-fluoro-5-(quinoxaline-6-carbonyl)phenyl)-3-(trifluoromethyl)benzamide] | 1 to 5 µM | < 70% | > 89% | > 5 µM
NCCNc1cnc2ccc(C(=O)c3cc(NC(=O)Nc4ccc(F)cc4)ccc3F)cc2n1 [Compound C089, 1-(3-(3-((2-aminoethyl)amino)quinoxaline-6-carbonyl)-4-fluorophenyl)-3-(4-fluorophenyl)urea] | 1 to 5 µM | > 89% | > 89% | > 5 µM
O=C(Nc1cccc(C(F)(F)F)c1)Nc1cc(F)c(F)c(C(=O)c2ccc3nccnc3c2)c1 [Compound C042, 1-(3,4-difluoro-5-(quinoxaline-6-carbonyl)phenyl)-3-(3-(trifluoromethyl)phenyl)urea] | 1 to 5 µM | < 70% | > 89% | 2 to 5 µM
O=C(Nc1cc(F)cc(C(=O)c2ccc3nccnc3c2)c1)Nc1ccc(F)c(Cl)c1 [Compound C067, 1-(3-chloro-4-fluorophenyl)-3-(3-fluoro-5-(quinoxaline-6-carbonyl)phenyl)urea] | 1 to 5 µM | < 70% | > 89% | 2 to 5 µM
O=C(Nc1cc(F)cc(C(=O)c2ccc3nccnc3c2)c1)Nc1ccc(Cl)c(F)c1 [Compound C061, 1-(4-chloro-3-fluorophenyl)-3-(3-fluoro-5-(quinoxaline-6-carbonyl)phenyl)urea] | > 5 µM | < 70% | > 89% | 2 to 5 µM
O=C(Nc1cccc(F)c1)Nc1ccc(F)c(C(=O)c2ccc3nccnc3c2)c1F [Compound C011, 1-(2,4-difluoro-3-(quinoxaline-6-carbonyl)phenyl)-3-(3-fluorophenyl)urea] | > 5 µM | < 70% | 70 to 89% | > 5 µM
O=C(Nc1cc(F)c(F)c(C(=O)c2ccc3ncc(N4CCOCC4)nc3c2)c1F)c1cccc(C(F)(F)F)c1 [Compound C138, N-(2,4,5-trifluoro-3-(3-morpholinoquinoxaline-6-carbonyl)phenyl)-3-(trifluoromethyl)benzamide] | 1 to 5 µM | > 89% | 70 to 89% | > 5 µM
O=C(Nc1ccc(Cl)c(F)c1)Nc1ccc(F)c(C(=O)c2ccc3ncc(N4CCOCC4)nc3c2)c1 [Compound C052, 1-(4-chloro-3-fluorophenyl)-3-(4-fluoro-3-(3-morpholinoquinoxaline-6-carbonyl)phenyl)urea] | < 1 µM | 70 to 89% | > 89% | < 2 µM
O=C(Nc1ccc(F)c(C(=O)c2ccc3nccnc3c2)c1)c1ccc(Cl)c(C(F)(F)F)c1 [Compound C117, 4-chloro-N-(4-fluoro-3-(quinoxaline-6-carbonyl)phenyl)-3-(trifluoromethyl)benzamide] | 1 to 5 µM | 70 to 89% | > 89% | 2 to 5 µM
O=C(Nc1cc(F)cc(Cl)c1)Nc1ccc(F)c(C(=O)c2ccc3nccnc3c2)c1 [Compound C078, 1-(3-chloro-5-fluorophenyl)-3-(4-fluoro-3-(quinoxaline-6-carbonyl)phenyl)urea] | 1 to 5 µM | 70 to 89% | > 89% | 2 to 5 µM
O=C(Nc1cc(F)cc(C(=O)c2ccc3nccnc3c2)c1)c1ccc(Cl)c(C(F)(F)F)c1 [Compound C127, 4-chloro-N-(3-fluoro-5-(quinoxaline-6-carbonyl)phenyl)-3-(trifluoromethyl)benzamide] | > 5 µM | < 70% | 70 to 89% | > 5 µM
O=C(Nc1ccc(F)c(C(=O)c2ccc3ncc(N4CCOCC4)nc3c2)c1)c1cccc(F)c1 [Compound C136] | 1 to 5 µM | > 89% | > 89% | > 5 µM
O=C(Nc1cc(F)c(F)c(C(=O)c2ccc3nccnc3c2)c1)c1cccc(C(F)(F)F)c1 [Compound C128, N-(3,4-difluoro-5-(quinoxaline-6-carbonyl)phenyl)-3-(trifluoromethyl)benzamide] | 1 to 5 µM | 70 to 89% | > 89% | > 5 µM
O=C(Nc1ccc(F)c(Cl)c1)Nc1ccc(F)c(C(=O)c2ccc3ncc(N4CCOCC4)nc3c2)c1 [Compound C055, 1-(3-chloro-4-fluorophenyl)-3-(4-fluoro-3-(3-morpholinoquinoxaline-6-carbonyl)phenyl)urea] | < 1 µM | > 89% | > 89% | < 2 µM
O=C(Nc1cc(F)cc(C(=O)c2ccc3nccnc3c2)c1)Nc1ccc(Cl)c(Cl)c1 [Compound C069, 1-(3,4-dichlorophenyl)-3-(3-fluoro-5-(quinoxaline-6-carbonyl)phenyl)urea] | > 5 µM | < 70% | > 89% | < 2 µM
